Where a name gives a salt, the structure may show the parent alone. Read-outs that look alike come from different tables or passages of the source.
Biological target: T1, His6-AspH315–758 (human aspartate/asparagine-β-hydroxylase, AspH) (Homo sapiens, UniProt Q12797)
T1 construct: N-Terminally His6-tagged human AspH315–758 (His6-AspH315–758) was produced in E. coli BL21 (DE3) cells; made in house; host or cells: E. coli BL21 (DE3), pET-28a(+) vector
T1 sequence (Q12797 315-758): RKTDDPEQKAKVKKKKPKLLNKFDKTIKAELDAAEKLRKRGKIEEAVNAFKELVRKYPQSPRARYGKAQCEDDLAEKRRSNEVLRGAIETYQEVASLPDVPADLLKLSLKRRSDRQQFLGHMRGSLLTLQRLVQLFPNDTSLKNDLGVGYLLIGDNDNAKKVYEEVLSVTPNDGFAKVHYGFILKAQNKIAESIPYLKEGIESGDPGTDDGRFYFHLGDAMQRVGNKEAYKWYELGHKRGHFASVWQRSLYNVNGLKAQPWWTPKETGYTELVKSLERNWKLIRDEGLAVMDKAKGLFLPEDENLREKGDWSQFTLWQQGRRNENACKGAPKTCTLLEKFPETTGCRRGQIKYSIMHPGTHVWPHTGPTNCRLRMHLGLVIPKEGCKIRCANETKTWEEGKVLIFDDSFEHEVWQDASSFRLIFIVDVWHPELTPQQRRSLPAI
Assay: SPE-MS AspH inhibition assay (LOPAC screen at fixed 20 μM and IC50 dose-response), hydroxylation of cyclic peptide hFX-CP101–119
Format: biochemical

[1] = LOPAC compound at fixed 20 uM, plate 1, normalised to DMSO and 2,4-PDCA controls
[2] = LOPAC compound at fixed 20 uM, substrate conversion, plate 1
[3] = LOPAC Plate 4, compound at 20 uM, substrate conversion

SMILES | Plate 1 (% inhibition) [1] | Plate 1 (% conversion) [2] | also measured
NN=C(N)N.NN=C(N)N.O=S(=O)(O)O [Aminoguanidine hemisulfate] | 3.68% | 34.64% | 
Cl.N=C(N)NN [Aminoguanidine hydrochloride] | -12.95% | 40.22% | 
Cn1c(=O)c2[nH]cnc2n(C)c1=O.Cn1c(=O)c2[nH]cnc2n(C)c1=O.NCCN [Aminophylline ethylenediamine] | -9.00% | 38.90% | 
Nc1nc(N)c2nc(CNc3ccc(C(=O)N[C@@H](CCC(=O)O)C(=O)O)cc3)cnc2n1 [Aminopterin] | -2.16% |  | Plate 1 (% conversion): 36.60%
CCCCc1oc2ccccc2c1C(=O)c1cc(I)c(OCCN(CC)CC)c(I)c1 [Amiodarone hydrochloride] | 32.10% |  | 
CCN1CCCC1CNC(=O)c1cc(S(=O)(=O)CC)c(N)cc1OC (stereo not drawn) [Amisulpride] |  |  | % conversion [3]: 40.99%; inhibition at 20 µM (LOPAC Plate 4, compound at 20 uM, read-out: % inhibition): -13.2%
CN(C)CCC=C1c2ccccc2CCc2ccccc21 [Amitriptyline hydrochloride] | -8.33% |  | Plate 1 (% conversion): 38.67%
N.S=C(S)N1CCCC1 [Ammonium pyrrolidinedithiocarbamate] |  |  | % conversion [3]: 37.86%
Clc1ccc2c(c1)C(N1CCNCC1)=Nc1ccccc1O2 [Amoxapine] | -8.96% | 38.88% | 
COc1cc(NS(C)(=O)=O)ccc1Nc1c2ccccc2nc2ccccc12 [Amsacrine hydrochloride] | -10.85% | 39.52% | 
N=c1ccn2c(n1)O[C@H]1[C@H](O)[C@@H](CO)O[C@H]12 [Ancitabine hydrochloride] | -4.15% |  | 
COc1ccc(C(=O)N2CCCC2=O)cc1 [Aniracetam] |  |  | Plate 1 (% conversion): 23.49%; Plate 1 (% inhibition): 36.86%
Cl.c1ccc(CN(CC2=NCCN2)c2ccccc2)cc1 [Antozoline hydrochloride] | -17.43% | 41.73% | 
O=c1cc(-c2ccc(O)cc2)oc2cc(O)cc(O)c12 [Apigenin, reference compound] | 95.84% | 3.68% | inhibition at 20 µM (AspH activity, fixed compound concentration 20 μM, initial LOPAC screen, 0.5%v/v DMSO, read-out: Inhibition at 20 µM [%]): 95.8%
CN1CCc2cccc3c2[C@H]1Cc1ccc(O)c(O)c1-3 [Apomorphine hydrochloride hemihydrate] | 80.27% | 8.92% | 
CCN(CC)CCCN(c1ccccc1)C1Cc2ccccc2C1 [Aprindine hydrochloride] |  |  | % conversion [3]: 34.60%
Nc1nc2c(ncn2[C@@H]2O[C@H](CO)[C@@H](O)[C@@H]2O)c(=O)[nH]1.O [Ara-G hydrate] |  |  | % inhibition (LOPAC Plate 4, compound at 20 uM): -11.19%; % conversion [3]: 40.29%
NC(N)=NCCCCN=C(N)N [Arcaine sulfate] | -5.14% | 37.60% | 
C#CCOC(=O)C1=CCCN(C)C1 [Arecaidine propargyl ester hydrobromide] |  |  | Plate 1 (% conversion): 37.75%; Plate 1 (% inhibition): -5.59%
COC(=O)C1=CCCN(C)C1 [Arecoline hydrobromide] |  |  | Plate 1 (% conversion): 37.04%; Plate 1 (% inhibition): -3.47%
CC1CNc2c(cccc2S(=O)(=O)N[C@@H](CCCNC(=N)N)C(=O)N2CC[C@@H](C)C[C@@H]2C(=O)O)C1 (stereo partly drawn) [Argatroban monohydrate] | -7.94% | 38.54% | 

Reference: paper PMC7251097, “Aspartate/asparagine-β-hydroxylase: a high-throughput mass spectrometric assay for discovery of small molecule inhibitors” (Scientific Reports, 2020)
